Test results from patent US10259810B2, “N-sulfonylated pyrazolo[3,4-b]pyridin-6-carboxamides and method of use” (AbbVie S.à.r.l., priority 2015, dated 2019).

Columns and labels:
Assay type in all cases: cell-based
ΔF508-CFTR [1] = target: T1, ΔF508-CFTR (Homo sapiens, UniProt P13569, DEL508-508); test: CFTR cell surface levels using HRP-tagged ΔF508-CFTR expressing CFBE cells, in the presence of a co-corrector; details: HRP-tagged ΔF508-CFTR CFBE cells, in the presence of 3 μM co-corrector; for EC50: read-out: EC50
T1 construct: host or cells: CFBE41o-, doxycycline-inducible
T1 sequence (P13569 with tags, fused parts or gaps DEL508-508): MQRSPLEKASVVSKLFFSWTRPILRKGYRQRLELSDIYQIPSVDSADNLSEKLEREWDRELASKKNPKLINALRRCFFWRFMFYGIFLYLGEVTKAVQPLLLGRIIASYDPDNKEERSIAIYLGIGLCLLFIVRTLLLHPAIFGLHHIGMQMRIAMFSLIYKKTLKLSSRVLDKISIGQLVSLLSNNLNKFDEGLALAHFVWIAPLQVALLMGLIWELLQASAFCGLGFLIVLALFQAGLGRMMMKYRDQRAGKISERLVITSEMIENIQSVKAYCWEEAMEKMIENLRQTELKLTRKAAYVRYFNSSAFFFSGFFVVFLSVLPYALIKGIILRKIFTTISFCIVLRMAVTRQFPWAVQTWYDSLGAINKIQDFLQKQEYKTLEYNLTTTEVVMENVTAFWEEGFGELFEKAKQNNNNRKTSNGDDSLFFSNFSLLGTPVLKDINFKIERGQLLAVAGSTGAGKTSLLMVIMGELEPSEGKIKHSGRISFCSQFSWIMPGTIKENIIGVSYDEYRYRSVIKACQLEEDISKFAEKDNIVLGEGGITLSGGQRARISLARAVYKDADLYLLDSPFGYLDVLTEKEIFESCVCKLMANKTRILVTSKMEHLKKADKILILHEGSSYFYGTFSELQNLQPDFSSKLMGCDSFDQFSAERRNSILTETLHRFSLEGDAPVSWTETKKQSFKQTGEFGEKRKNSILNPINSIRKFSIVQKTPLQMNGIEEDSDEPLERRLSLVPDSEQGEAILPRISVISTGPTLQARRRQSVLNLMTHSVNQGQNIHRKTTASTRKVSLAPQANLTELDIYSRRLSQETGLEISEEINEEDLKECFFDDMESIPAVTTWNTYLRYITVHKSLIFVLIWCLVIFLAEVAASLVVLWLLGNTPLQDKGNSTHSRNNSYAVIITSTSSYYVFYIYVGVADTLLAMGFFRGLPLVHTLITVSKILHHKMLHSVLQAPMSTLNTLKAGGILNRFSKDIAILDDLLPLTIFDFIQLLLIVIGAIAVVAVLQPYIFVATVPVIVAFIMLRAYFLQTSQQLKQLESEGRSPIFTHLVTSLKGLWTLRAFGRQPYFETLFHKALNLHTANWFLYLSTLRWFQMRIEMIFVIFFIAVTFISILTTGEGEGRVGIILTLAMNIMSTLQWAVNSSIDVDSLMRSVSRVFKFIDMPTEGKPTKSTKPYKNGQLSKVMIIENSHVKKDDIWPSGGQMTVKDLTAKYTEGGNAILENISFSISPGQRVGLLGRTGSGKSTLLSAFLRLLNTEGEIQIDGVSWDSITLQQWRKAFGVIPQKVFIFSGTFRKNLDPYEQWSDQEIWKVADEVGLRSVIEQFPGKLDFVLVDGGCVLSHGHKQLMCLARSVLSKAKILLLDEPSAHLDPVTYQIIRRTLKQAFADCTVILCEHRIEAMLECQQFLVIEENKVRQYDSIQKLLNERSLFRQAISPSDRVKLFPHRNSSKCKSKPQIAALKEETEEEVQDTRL
Summary of the method: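 Chemiluminescent read-out of surface HRP (15 min, dark) after PBS washes. Activity is normalized as 100×(sample−DMSO)/(3 μM co-corrector alone−DMSO).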

ΔF508-CFTR [2] = target: T1, ΔF508-CFTR; test: CFTR cell surface levels using HRP-tagged ΔF508-CFTR expressing CFBE cells, intrinsic corrector capacity; set-up: % Activation: concentration or dose not given beside the values; details: HRP-tagged ΔF508-CFTR expressing CFBE41o- cells, compound alone (intrinsic corrector capacity), 20 hours at 33° C.; for EC50: read-out: EC50
Summary of the method: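 Surface ΔF508-CFTR was measured as HRP chemiluminescence from an extracellular-loop-4 tag, expressed as percent activity between DMSO and a […] corrector control.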

CFTR ΔF508 = target: T2, CFTR ΔF508 (Homo sapiens, UniProt P13569, DEL508-508); test: Chronic TECC assay, primary bronchial epithelial cells of CF patients homozygous for CFTR ΔF508 (corrector, co-corrector and potentiator); details: chronic TECC, AUC = full area under the curve upon forskolin stimulation; for % Activity at 1 μM (AUC**): test compound at 1 μM; for EC50: read-out: EC50 (nM) (AUC**)
T2 construct: bronchial epithelial cells isolated from CF patients homozygous for the CFTR ΔF508 mutation; McGill University; Asterand; University of North Carolina hAEC-CF; host or cells: primary human bronchial epithelial cells from CF patients homozygous for ΔF508, differentiated at air-liquid interface
T2 sequence (P13569 with tags, fused parts or gaps DEL508-508): as above
Summary of the method: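 Primary bronchial epithelial cells from ΔF508-homozygous CF patients on collagen IV-coated Transwells were chronically treated with test compound plus corrector and potentiator, which were re-added before recording. Ieq was derived from PD and Rt in NaCl-Ringer, pH 7.4, at 37° C, with apical amiloride and bilateral forskolin, recorded every 2 min over 20 min. Ieq increase was normalized to controls, and EC50 was taken from per-well concentrations.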

Row | Structure (SMILES) | % Activation (ΔF508-CFTR [1]) [%] | EC50 (ΔF508-CFTR [1]) [nM] | % Activation (ΔF508-CFTR [2]) [%] | EC50 (ΔF508-CFTR [2]) [nM] | % Activity at 1 μM (AUC**) (CFTR ΔF508) [%] | EC50 (CFTR ΔF508) [nM]
1 | COCCS(=O)(=O)NC(=O)c1cc(N2CCC(COC)CC2)c2c(C(C)C)nn(C3CCCCC3)c2n1 [Compound 251, 1-cyclohexyl-N-(2-methoxyethanesulfonyl)-4-[4-(methoxymethyl)piperidin-1-yl]-3-(propan-2-yl)-1H-pyrazolo[3,4-b]pyridine-6-carboxamide] | 488.7 | 367 | 273.3 | 634 | 336.34 | –
2 | COCCN(CCOC)c1ccc(-c2cc(C(=O)NS(C)(=O)=O)nc3c2c(C(C)C)nn3-c2ccnc(N3CCOCC3)c2)cn1 [Compound 252, 4-{6-[bis(2-methoxyethyl)amino]pyridin-3-yl}-N-(methanesulfonyl)-1-[2-(morpholin-4-yl)pyridin-4-yl]-3-(propan-2-yl)-1H-pyrazolo[3,4-b]pyridine-6-carboxamide] | 310.75 | 1690 | 115.2 | 396 | 248.51 | –
3 | COCCS(=O)(=O)NC(=O)c1cc(N2CCC(COC)CC2)c2c(C(C)C)nn(CC3CCC3)c2n1 [Compound 263, 1-(cyclobutylmethyl)-N-(2-methoxyethanesulfonyl)-4-[4-(methoxymethyl)piperidin-1-yl]-3-(propan-2-yl)-1H-pyrazolo[3,4-b]pyridine-6-carboxamide] | 475.45 | 404 | 260.1 | 445 | 399.85 | 77
4 | COCC1CCN(c2cc(C(=O)NS(=O)(=O)CCN3CCOCC3)nc3c2c(C2CCC2)nn3-c2ccccc2)CC1 [Compound 267, 3-cyclobutyl-4-[4-(methoxymethyl)piperidin-1-yl]-N-[2-(morpholin-4-yl)ethanesulfonyl]-1-phenyl-1H-pyrazolo[3,4-b]pyridine-6-carboxamide] | 433 | 57.1 | 274.8 | 172 | – | 130
5 | COCCS(=O)(=O)NC(=O)c1cc(OCC2(C)COC2)c2c(C3CCC3)nn(-c3ccccc3)c2n1 [Compound 269, 3-cyclobutyl-N-(2-methoxyethanesulfonyl)-4-[(3-methyloxetan-3-yl)methoxy]-1-phenyl-1H-pyrazolo[3,4-b]pyridine-6-carboxamide] | 275.45 | 97.2 | 120.6 | 246 | 172.35 | –
6 | CC(C)N1CCN(c2cc(C(=O)NS(C)(=O)=O)nc3c2c(C2CCC2)nn3-c2ccccc2)CC1 [Compound 270, 3-cyclobutyl-N-(methanesulfonyl)-1-phenyl-4-[4-(propan-2-yl)piperazin-1-yl]-1H-pyrazolo[3,4-b]pyridine-6-carboxamide] | 327.9 | 731 | 161.5 | 1490 | 250 | 297
7 | COCC1CCN(c2cc(C(=O)NS(=O)(=O)CCCN3CCOCC3)nc3c2c(C(C)C)nn3-c2ccc(F)cc2)CC1 [Compound 272, 1-(4-fluorophenyl)-4-[4-(methoxymethyl)piperidin-1-yl]-N-[3-(morpholin-4-yl)propane-1-sulfonyl]-3-(propan-2-yl)-1H-pyrazolo[3,4-b]pyridine-6-carboxamide] | 451.2 | 43.3 | 268.2 | 96.5 | 285.35 | –
8 | COCC1CCN(c2cc(C(=O)NS(=O)(=O)CCN(C)C)nc3c2c(C2CCC2)nn3-c2ccccc2)CC1 [Compound 273, 3-cyclobutyl-N-[2-(dimethylamino)ethanesulfonyl]-4-[4-(methoxymethyl)piperidin-1-yl]-1-phenyl-1H-pyrazolo[3,4-b]pyridine-6-carboxamide] | 344.05 | 111 | 182.4 | 562 | 197.06 | –
9 | CC(=O)N1CCC(F)(COc2cc(C(=O)NS(C)(=O)=O)nc3c2c(C2CCC2)nn3-c2ccccc2)CC1 [Compound 274, 4-[(1-acetyl-4-fluoropiperidin-4-yl)methoxy]-3-cyclobutyl-N-(methanesulfonyl)-1-phenyl-1H-pyrazolo[3,4-b]pyridine-6-carboxamide] | 300 | 398 | 159.05 | 842 | 224.99 | > 300
10 | COCC1CCN(c2cc(C(=O)NS(C)(=O)=O)nc3c2c(C(C)C)nn3-c2ccnc(N3CCOCC3)n2)CC1 [Compound 279, N-(methanesulfonyl)-4-[4-(methoxymethyl)piperidin-1-yl]-1-[2-(morpholin-4-yl)pyrimidin-4-yl]-3-(propan-2-yl)-1H-pyrazolo[3,4-b]pyridine-6-carboxamide] | 530.6 | 227 | 308.4 | 534 | – | 109
11 | COCC1CCN(c2cc(C(=O)NS(=O)(=O)CCCN3CCCC3)nc3c2c(C(C)C)nn3-c2ccc(F)cc2)CC1 [Compound 291, 1-(4-fluorophenyl)-4-[4-(methoxymethyl)piperidin-1-yl]-3-(propan-2-yl)-N-[3-(pyrrolidin-1-yl)propane-1-sulfonyl]-1H-pyrazolo[3,4-b]pyridine-6-carboxamide] | 420.07 | 591 | 219.5 | 3330 | 255.92 | –
12 | COC(C)(C)C1CCN(c2cc(C(=O)NS(C)(=O)=O)nc3c2c(C2CCC2)nn3-c2ccccc2)CC1 [Compound 294, 3-cyclobutyl-N-(methanesulfonyl)-4-[4-(2-methoxypropan-2-yl)piperidin-1-yl]-1-phenyl-1H-pyrazolo[3,4-b]pyridine-6-carboxamide] | 548.45 | 22.1 | 319.6 | 62.2 | – | 21
13 | COC(=O)N1CCC(COc2cc(C(=O)NS(C)(=O)=O)nc3c2c(C2CCC2)nn3-c2ccccc2)CC1 [Compound 297, methyl 4-[({3-cyclobutyl-6-[(methanesulfonyl)carbamoyl]-1-phenyl-1H-pyrazolo[3,4-b]pyridin-4-yl}oxy)methyl]piperidine-1-carboxylate] | 423.43 | 77.2 | 193.9 | 99.2 | 470.97 | ≤ 30
14 | CC(C)c1nn(-c2ccc(F)cc2)c2nc(C(=O)NS(C)(=O)=O)cc(N3CCC(C(C)(C)O)CC3)c12 [Compound 304, 1-(4-fluorophenyl)-4-[4-(2-hydroxypropan-2-yl)piperidin-1-yl]-N-(methanesulfonyl)-3-(propan-2-yl)-1H-pyrazolo[3,4-b]pyridine-6-carboxamide] | 507 | 56.1 | 308.2 | 203 | 194.54 | –
15 | COCC1CCN(c2cc(C(=O)NS(C)(=O)=O)nc3c2c(C2CCC2)nn3-c2ccc(F)cc2)CC1 [Compound 316, 3-cyclobutyl-1-(4-fluorophenyl)-N-(methanesulfonyl)-4-[4-(methoxymethyl)piperidin-1-yl]-1H-pyrazolo[3,4-b]pyridine-6-carboxamide] | 555.55 | 24.4 | 380.5 | 183 | 452.88 | 45
16 | CC(C)(O)C1CCN(c2cc(C(=O)NS(C)(=O)=O)nc3c2c(C2CCC2)nn3-c2ccccc2)CC1 [Compound 317, 3-cyclobutyl-4-[4-(2-hydroxypropan-2-yl)piperidin-1-yl]-N-(methanesulfonyl)-1-phenyl-1H-pyrazolo[3,4-b]pyridine-6-carboxamide] | 450.35 | 48.8 | 269.6 | 93.5 | 311.08 | 24
17 | CS(=O)(=O)NC(=O)c1cc(OCC2CCOCC2)c2c(C3CCC3)nn(-c3ccc(F)cc3)c2n1 [Compound 318, 3-cyclobutyl-1-(4-fluorophenyl)-N-(methanesulfonyl)-4-[(oxan-4-yl)methoxy]-1H-pyrazolo[3,4-b]pyridine-6-carboxamide] | 359.5 | 184 | 183.45 | 411 | 439.94 | –
18 | CC(C)c1nn(-c2ccc(F)cc2)c2nc(C(=O)NS(C)(=O)=O)cc(N3CCC(C4CCN(C)CC4)CC3)c12 [Compound 320, 1-(4-fluorophenyl)-N-(methanesulfonyl)-4-(1'-methyl[4,4'-bipiperidin]-1-yl)-3-(propan-2-yl)-1H-pyrazolo[3,4-b]pyridine-6-carboxamide] | 590.6 | 82.7 | 376.35 | 309 | 215.3 | –
